In the supplement of paper PMC10307832:

Assays:
Test in all cases: relative viability (nuclei count vs DMSO), 5 days (fraction); higher = more cells survive
[1] = tested on: NCI-H1666
Procedure, shortened: (§1)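 The day after seeding in 1536-well plates, lung cancer cell lines were treated by pin tool with a single drug, or with a fixed anchor-drug dose together with five library-drug doses (not always all listed) in √10 steps. After 5 days, a combined fix-and-stain solution (final 0.05% Triton X-100, 1% formaldehyde, 1 ug/ml Hoechst) was added. Nuclei counted on 4× images gave relative viability as treated counts over vehicle counts, reported as the median of duplicate plates.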

[2] = tested on: NCI-H838
Procedure, shortened: as §1

[3] = tested on: UMC-11
Procedure, shortened: as §1

[4] = tested on: ChaGo-K-1
Procedure, shortened: as §1

[5] = tested on: NCI-H650
Procedure, shortened: as §1

[6] = tested on: HCC-15
Procedure, shortened: as §1

[7] = tested on: LXF-289
Procedure, shortened: as §1

[8] = tested on: PC-3 [JPC-3]
Procedure, shortened: as §1

[9] = tested on: NCI-H322M
Procedure, shortened: as §1

[10] = tested on: NCI-H661
Procedure, shortened: as §1

[11] = tested on: NCI-H2087
Procedure, shortened: as §1

[12] = tested on: NCI-H2342
Procedure, shortened: as §1

[13] = tested on: NCI-H1651
Procedure, shortened: as §1

[14] = tested on: LK-2
Procedure, shortened: as §1

[15] = tested on: NCI-H596
Procedure, shortened: as §1

[16] = tested on: NCI-H1944
Procedure, shortened: as §1

[17] = tested on: LU99A
Procedure, shortened: as §1

[18] = tested on: BEN
Procedure, shortened: as §1

[19] = tested on: NCI-H358
Procedure, shortened: as §1

[20] = tested on: LC-2-ad
Procedure, shortened: as §1

[21] = tested on: LCLC-97TM1
Procedure, shortened: as §1

[22] = tested on: HCC-78
Procedure, shortened: as §1

[23] = tested on: SK-MES-1
Procedure, shortened: as §1

O=C(O)c1ccc(-c2c[nH]c3ncc(-c4ccccc4)cc23)cc1C1CCCC1 + N=C(N)NC(=N)NCCc1ccccc1 [Phenformin] (partner 250 µM)
relative viability ([1]; first compound 0.04 µM): 0.579
relative viability ([1]; first compound 0.1265 µM): 0.552
relative viability ([1]; first compound 0.4 µM): 0.508
relative viability ([1]; first compound 1.265 µM): 0.363
relative viability ([2]; first compound 0.04 µM): 0.542
relative viability ([2]; first compound 0.1265 µM): 0.655
relative viability ([2]; first compound 0.4 µM): 0.596
relative viability ([2]; first compound 1.265 µM): 0.511
relative viability ([3]; first compound 0.04 µM): 0.331
relative viability ([3]; first compound 0.1265 µM): 0.324
relative viability ([3]; first compound 0.4 µM): 0.306
relative viability ([3]; first compound 1.265 µM): 0.265
relative viability ([4]; first compound 0.04 µM): 0.477
relative viability ([4]; first compound 0.1265 µM): 0.541
relative viability ([4]; first compound 0.4 µM): 0.452
relative viability ([4]; first compound 1.265 µM): 0.507
relative viability ([5]; first compound 0.04 µM): 0.42
relative viability ([5]; first compound 0.1265 µM): 0.494
relative viability ([5]; first compound 0.4 µM): 0.448
relative viability ([5]; first compound 1.265 µM): 0.399
relative viability ([6]; first compound 0.04 µM): 0.514
relative viability ([6]; first compound 0.1265 µM): 0.617
relative viability ([6]; first compound 0.4 µM): 0.433
relative viability ([6]; first compound 1.265 µM): 0.234
relative viability ([7]; first compound 0.04 µM): 0.543
relative viability ([7]; first compound 0.1265 µM): 0.507
relative viability ([7]; first compound 0.4 µM): 0.485
relative viability ([7]; first compound 1.265 µM): 0.243
relative viability ([8]; first compound 0.04 µM): 0.475
relative viability ([8]; first compound 0.1265 µM): 0.501
relative viability ([8]; first compound 0.4 µM): 0.468
relative viability ([8]; first compound 1.265 µM): 0.436
relative viability ([9]; first compound 0.04 µM): 0.772
relative viability ([9]; first compound 0.1265 µM): 0.832
relative viability ([9]; first compound 0.4 µM): 0.782
relative viability ([9]; first compound 1.265 µM): 0.63
relative viability ([10]; first compound 0.04 µM): 0.292
relative viability ([10]; first compound 0.4 µM): 0.285
relative viability ([10]; first compound 1.265 µM): 0.278
relative viability ([11]; first compound 0.04 µM): 0.472
relative viability ([11]; first compound 0.1265 µM): 0.461
relative viability ([11]; first compound 0.4 µM): 0.397
relative viability ([11]; first compound 1.265 µM): 0.393
relative viability ([12]; first compound 0.04 µM): 0.512
relative viability ([12]; first compound 0.1265 µM): 0.693
relative viability ([12]; first compound 0.4 µM): 0.623
relative viability ([12]; first compound 1.265 µM): 0.491
relative viability ([13]; first compound 0.04 µM): 0.349
relative viability ([13]; first compound 0.1265 µM): 0.328
relative viability ([13]; first compound 0.4 µM): 0.278
relative viability ([13]; first compound 1.265 µM): 0.189
relative viability ([14]; first compound 0.04 µM): 0.733
relative viability ([14]; first compound 0.1265 µM): 0.699
relative viability ([14]; first compound 0.4 µM): 0.377
relative viability ([14]; first compound 1.265 µM): 0.367
relative viability ([15]; first compound 0.04 µM): 0.772
relative viability ([15]; first compound 0.1265 µM): 0.808
relative viability ([15]; first compound 0.4 µM): 0.79
relative viability ([15]; first compound 1.265 µM): 0.737
relative viability ([16]; first compound 0.04 µM): 0.191
relative viability ([16]; first compound 0.1265 µM): 0.214
relative viability ([16]; first compound 0.4 µM): 0.194
relative viability ([16]; first compound 1.265 µM): 0.172
relative viability ([17]; first compound 0.04 µM): 0.961
relative viability ([17]; first compound 0.1265 µM): 0.784
relative viability ([17]; first compound 0.4 µM): 0.865
relative viability ([17]; first compound 1.265 µM): 0.606
relative viability ([18]; first compound 0.04 µM): 0.274
relative viability ([18]; first compound 0.1265 µM): 0.283
relative viability ([18]; first compound 0.4 µM): 0.247
relative viability ([18]; first compound 1.265 µM): 0.246
relative viability ([19]; first compound 0.04 µM): 0.347
relative viability ([19]; first compound 0.1265 µM): 0.379
relative viability ([19]; first compound 0.4 µM): 0.292
relative viability ([19]; first compound 1.265 µM): 0.124
relative viability ([20]; first compound 0.04 µM): 0.584
relative viability ([20]; first compound 0.1265 µM): 0.634
relative viability ([20]; first compound 0.4 µM): 0.536
relative viability ([20]; first compound 1.265 µM): 0.494
relative viability ([21]; first compound 0.04 µM): 0.475
relative viability ([21]; first compound 0.1265 µM): 0.435
relative viability ([21]; first compound 0.4 µM): 0.5
relative viability ([21]; first compound 1.265 µM): 0.399
relative viability ([22]; first compound 0.1265 µM): 0.907
relative viability ([22]; first compound 0.4 µM): 0.828
relative viability ([22]; first compound 1.265 µM): 0.683
relative viability ([23]; first compound 0.04 µM): 0.683
relative viability ([23]; first compound 0.1265 µM): 0.687
relative viability ([23]; first compound 0.4 µM): 0.637
relative viability ([23]; first compound 1.265 µM): 0.447
